Results from the supplement of paper PMC8498969.

Legend:
HEK293 [1] = test: maximal inhibition of ZIKV NS1 production (% inhibition); higher = stronger antiviral effect
Method: (§1)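 HEK293 cells in 1536-well plates were pre-treated with compound for 1 h, infected with ZIKV (MOI 1) for 24 h, and NS1 antigen (intra- plus extracellular) was measured by TR-FRET. Confirmation used 11-point 1:3 dilutions, and IC50 and maximal inhibition were fitted in GraphPad Prism.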

HEK293 [2] = test: IC50 for inhibition of ZIKV NS1 production
Method: as §1

HEK293 [3] = test: cytotoxicity IC50 (ATP content, uninfected cells); higher = less cytotoxic; conditions: infection: none

## COc1cccc2c1C(=O)c1c(O)c3c(c(O)c1C2=O)C[C@@](O)(C(=O)CO)C[C@@H]3O[C@H]1C[C@H](N)[C@@H](O)[C@H](C)O1
HEK293 [1]
  maximal inhibition: 84
HEK293 [2]
  IC50: 0.49 µM
HEK293 [3]
  cytotoxicity IC50: > 100 µM

## C[C@H](NCc1ccc2c(c1)nc(NC(=O)c1ccc(-c3cn[nH]c3)s1)n2CCc1ccccc1)C(C)(C)C
HEK293 [1]
  maximal inhibition: 98
HEK293 [2]
  IC50: 17 µM
HEK293 [3]
  cytotoxicity IC50: > 100 µM

## CN1CCN(Cc2ccc(NC(=O)Nc3ccc(Oc4cc(NC(=O)C5CC5)ncn4)cc3)cc2C(F)(F)F)CC1
HEK293 [1]
  maximal inhibition: 104
HEK293 [2]
  IC50: 2.4 µM
HEK293 [3]
  cytotoxicity IC50: > 100 µM

## O=C1C(SCCO)=C(SCCO)C(=O)c2ccccc21
HEK293 [1]
  maximal inhibition: 97
HEK293 [2]
  IC50: 5.5 µM
HEK293 [3]
  cytotoxicity IC50: 5.3 µM

## CC(=O)[C@]1(O)Cc2c(O)c3c(c(O)c2[C@@H](O[C@H]2C[C@H](N)[C@H](O)[C@H](C)O2)C1)C(=O)c1ccccc1C3=O
HEK293 [1]
  maximal inhibition: 86
HEK293 [2]
  IC50: 0.17 µM
HEK293 [3]
  cytotoxicity IC50: > 100 µM

## Cc1ccc([N+](=O)[O-])[c]2c1[O][Hg]2
HEK293 [1]
  maximal inhibition: 107
HEK293 [2]
  IC50: 14 µM
HEK293 [3]
  cytotoxicity IC50: 9 µM

## C/C=C(/C)C(=O)O[C@H]1C(C)=C2[C@H]([C@@H]1OC(=O)CCCCCCC)[C@@](C)(OC(C)=O)C[C@H](OC(=O)CCC)[C@@]1(O)[C@H]2OC(=O)[C@@]1(C)O
HEK293 [1]
  maximal inhibition: 93
HEK293 [2]
  IC50: 0.17 µM
HEK293 [3]
  cytotoxicity IC50: 40 µM

## CO/C1=C\C(C)=C\[C@@H](C)[C@@H](O)[C@@H](C)C/C(C)=C/C=C/[C@H](OC)[C@@H]([C@@H](C)[C@@H](O)[C@H](C)[C@@]2(O)C[C@@H](O)[C@H](C)[C@@H](C(C)C)O2)OC1=O
HEK293 [1]
  maximal inhibition: 101
HEK293 [2]
  IC50: 5.3 µM
HEK293 [3]
  cytotoxicity IC50: 80 µM

## COc1cc([C@@H]2c3cc4c(cc3[C@@H](O[C@@H]3O[C@@H]5CO[C@@H](C)O[C@H]5[C@H](O)[C@H]3O)[C@H]3COC(=O)[C@H]23)OCO4)cc(OC)c1O
HEK293 [1]
  maximal inhibition: 102
HEK293 [2]
  IC50: 2.2 µM
HEK293 [3]
  cytotoxicity IC50: > 100 µM

## OC[C@H]1O[C@@H](n2cnc3c(S)ncnc32)[C@H](O)[C@@H]1O
HEK293 [1]
  maximal inhibition: 99
HEK293 [2]
  IC50: 8 µM
HEK293 [3]
  cytotoxicity IC50: 4.1 µM

## CCC[C@@H](C=O)NC(=O)[C@H](CC(C)C)NC(=O)[C@H](CC(C)C)NC(=O)OCc1ccccc1
HEK293 [1]
  maximal inhibition: 94
HEK293 [2]
  IC50: 1.6 µM
HEK293 [3]
  cytotoxicity IC50: 2.4 µM

## CC(C)[C@]12O[C@H]1[C@@H]1O[C@]13[C@]1(O[C@H]1C[C@H]1C4=C(CC[C@@]13C)C(=O)OC4)[C@@H]2O
HEK293 [1]
  maximal inhibition: 73
HEK293 [2]
  IC50: 0.47 µM
HEK293 [3]
  cytotoxicity IC50: > 100 µM

## CC(NCc1ccc2c(c1)nc(NC(=O)c1ccc(-c3cn[nH]c3)s1)n2CC(C)(C)O)C(C)(C)C (configuration not stated)
HEK293 [1]
  maximal inhibition: 101
HEK293 [2]
  IC50: 9.6 µM
HEK293 [3]
  cytotoxicity IC50: > 100 µM

## CC[C@H](CC#N)OC(=O)N[C@@H](C)c1cccc(NC(=O)Nc2ccc(-c3cnco3)c(OC)c2)c1
HEK293 [1]
  maximal inhibition: 99
HEK293 [2]
  IC50: 0.14 µM
HEK293 [3]
  cytotoxicity IC50: 20 µM

## CN(Cc1cnc2nc(N)nc(N)c2n1)c1ccc(C(=O)N[C@@H](CCC(=O)O)C(=O)O)cc1
HEK293 [1]
  maximal inhibition: 95
HEK293 [2]
  IC50: 0.46 µM
HEK293 [3]
  cytotoxicity IC50: 0.24 µM

## Oc1cccc(-c2nc(N3CCOCC3)c3oc4ncccc4c3n2)c1
HEK293 [1]
  maximal inhibition: 92
HEK293 [2]
  IC50: 1.6 µM
HEK293 [3]
  cytotoxicity IC50: 0.94 µM

## O=C(Nc1ncc(-c2cc(C(F)F)nn2-c2c(Cl)cccc2Cl)s1)C1CC1
HEK293 [1]
  maximal inhibition: 92
HEK293 [2]
  IC50: 1.2 µM
HEK293 [3]
  cytotoxicity IC50: > 100 µM

## Cc1cc(Nc2cc(NC(=O)c3c(Cl)cccc3Cl)ccn2)nc(N)n1
HEK293 [1]
  maximal inhibition: 97
HEK293 [2]
  IC50: 35 µM
HEK293 [3]
  cytotoxicity IC50: 70 µM

## Cc1ccc(NC(=O)c2ccc(CN3CCN(C)CC3)cc2)cc1Nc1nccc(-c2cccnc2)n1
HEK293 [1]
  maximal inhibition: 64
HEK293 [2]
  IC50: 60 µM
HEK293 [3]
  cytotoxicity IC50: 41 µM

## COc1cc(NCc2ccc3nc(N)nc(N)c3c2C)cc(OC)c1OC
HEK293 [1]
  maximal inhibition: 99
HEK293 [2]
  IC50: 1.6 µM
HEK293 [3]
  cytotoxicity IC50: 2.2 µM

## CCN1/C(=C/C=C/c2sc3ccccc3[n+]2CC)Sc2ccccc21
HEK293 [1]
  maximal inhibition: 71
HEK293 [2]
  IC50: 50 µM
HEK293 [3]
  cytotoxicity IC50: 1.2 µM

## C#CCC(Cc1cnc2nc(N)nc(N)c2n1)c1ccc(C(=O)N[C@@H](CCC(=O)O)C(=O)O)cc1 (some centres not stated)
HEK293 [1]
  maximal inhibition: 101
HEK293 [2]
  IC50: 0.45 µM
HEK293 [3]
  cytotoxicity IC50: 0.46 µM

## CC(C)(O)Cn1c(NC(=O)c2ccc(-c3cn[nH]c3)s2)nc2cc(CN3CCOCC3)ccc21
HEK293 [1]
  maximal inhibition: 103
HEK293 [2]
  IC50: 8.3 µM
HEK293 [3]
  cytotoxicity IC50: > 100 µM

## CC(C)(O)/C=C/C(=O)[C@](C)(O)[C@H]1[C@H](O)C[C@@]2(C)[C@@H]3CC=C4[C@@H](C=C(O)C(=O)C4(C)C)[C@]3(C)C(=O)C[C@]12C
HEK293 [1]
  maximal inhibition: 52
HEK293 [2]
  IC50: 45 µM
HEK293 [3]
  cytotoxicity IC50: 3 µM

## CC[C@]1(O)C[C@@H]2CN(CCc3c([nH]c4ccccc34)[C@@](C(=O)OC)(c3cc4c(cc3OC)N(C)[C@H]3[C@@](O)(C(N)=O)[C@H](O)[C@]5(CC)C=CCN6CC[C@]43[C@@H]65)C2)C1
HEK293 [1]
  maximal inhibition: 66
HEK293 [2]
  IC50: 0.66 µM
HEK293 [3]
  cytotoxicity IC50: > 100 µM

## O=C1/C(=C/c2ccccc2)C[C@@]2(O)[C@H]3Cc4ccc(O)c5c4[C@@]2(CCN3CC2CC2)[C@H]1O5
HEK293 [1]
  maximal inhibition: 106
HEK293 [2]
  IC50: 7.2 µM
HEK293 [3]
  cytotoxicity IC50: 2.4 µM

## O=C(NC1CCNCC1)c1n[nH]cc1NC(=O)c1c(Cl)cccc1Cl
HEK293 [1]
  maximal inhibition: 91
HEK293 [2]
  IC50: 3.1 µM
HEK293 [3]
  cytotoxicity IC50: 22 µM

## CC(=O)Nc1ccc([C@H](C)C(=O)Nc2ncc(C(C)C)s2)cc1
HEK293 [1]
  maximal inhibition: 90
HEK293 [2]
  IC50: 7.4 µM
HEK293 [3]
  cytotoxicity IC50: > 100 µM

## O=C1c2c(O)ccc(O)c2C(=O)c2c(NCCNCCO)ccc(NCCNCCO)c21
HEK293 [1]
  maximal inhibition: 100
HEK293 [2]
  IC50: 0.23 µM
HEK293 [3]
  cytotoxicity IC50: 50 µM

## Cc1ccc(-c2ncn(-c3ccc(Nc4nccc(-c5cccc(N6CCOCC6)c5)n4)cc3)n2)cn1
HEK293 [1]
  maximal inhibition: 87
HEK293 [2]
  IC50: 1.9 µM
HEK293 [3]
  cytotoxicity IC50: 9.8 µM

## Cc1nc2cnc3ccc(C#Cc4cccnc4)cc3c2n1-c1ccc(C(C)(C)C#N)cc1
HEK293 [1]
  maximal inhibition: 102
HEK293 [2]
  IC50: 1.4 µM
HEK293 [3]
  cytotoxicity IC50: 10 µM

## CC[n+]1c(/C=C/C=C2/N(C)c3ccccc3C2(C)C)sc2ccccc21
HEK293 [1]
  maximal inhibition: 97
HEK293 [2]
  IC50: 4 µM
HEK293 [3]
  cytotoxicity IC50: 0.26 µM

## CCc1nc(N)nc(N)c1-c1ccc(Cl)cc1
HEK293 [1]
  maximal inhibition: 88
HEK293 [2]
  IC50: 45 µM
HEK293 [3]
  cytotoxicity IC50: 14 µM

## C[C@@H]1O[C@@H](O[C@H]2C[C@@H](O)[C@]3(CO)[C@H]4[C@H](O)C[C@]5(C)[C@@H]([C@@H]6COC(=O)C6)CC[C@]5(O)[C@@H]4CC[C@]3(O)C2)[C@H](O)[C@H](O)[C@H]1O
HEK293 [1]
  maximal inhibition: 103
HEK293 [2]
  IC50: 1.5 µM
HEK293 [3]
  cytotoxicity IC50: 0.85 µM

## CSc1cccc(Nc2ncc3cc(-c4c(Cl)cccc4Cl)c(=O)n(C)c3n2)c1
HEK293 [1]
  maximal inhibition: 98
HEK293 [2]
  IC50: 8.4 µM
HEK293 [3]
  cytotoxicity IC50: 6.6 µM

## C[C@@H](Oc1cc(-n2cnc3ccc(CN4CCN(C)CC4)cc32)sc1C(N)=O)c1ccccc1C(F)(F)F
HEK293 [1]
  maximal inhibition: 98
HEK293 [2]
  IC50: 14 µM
HEK293 [3]
  cytotoxicity IC50: > 100 µM

## CCc1c2c(nc3ccc(O)cc13)-c1cc3c(c(=O)n1C2)COC(=O)[C@]3(O)CC
HEK293 [1]
  maximal inhibition: 61
HEK293 [2]
  IC50: 0.011 µM
HEK293 [3]
  cytotoxicity IC50: > 100 µM

## O=C1NC(=O)/C(=C/c2ccc3nccc(-c4ccncc4)c3c2)S1
HEK293 [1]
  maximal inhibition: 82
HEK293 [2]
  IC50: 1.9 µM
HEK293 [3]
  cytotoxicity IC50: 1.4 µM

## C[C@@H]1O[C@@H](O[C@@H]2C=C3CC[C@@H]4[C@H](CC[C@]5(C)[C@@H](c6ccc(=O)oc6)CC[C@]45O)[C@@]3(C)CC2)[C@H](O)[C@H](O)[C@H]1O
HEK293 [1]
  maximal inhibition: 105
HEK293 [2]
  IC50: 0.027 µM
HEK293 [3]
  cytotoxicity IC50: 0.011 µM
